Results as given in US20060240049A1, “Anti-protozoal compositions comprising diclazuril” (priority 2003, published 2006).

Legend:
[1] = in water; cited from earlier work
[2] = Stability of sodium diclazuril in aqueous solution; type: physicochemical; details: degrades into its keto-degradant

stability in an aqueous solution [2]	Compound	aqueous solubility, saturation concentration [1]
–	N#CC(c1ccc(Cl)cc1)c1c(Cl)cc(-n2ncc(=O)[nH]c2=O)cc1Cl (centres unmarked) [diclazuril]	below 1 μg/L
unstable	N#CC(c1ccc(Cl)cc1)c1c(Cl)cc(-n2ncc(=O)[n-]c2=O)cc1Cl.[Na+] (centres unmarked) [sodium diclazuril]	–
